For assay [1], the system named is picryl chloride-induced ear swelling. The following applies: picryl chloride-induced ear swelling mouse model; cited from earlier work.
Assay [2] deals with T1, TAK1 kinase domain (residues I31-Q303) of human transforming growth factor-beta-activated kinase 1, as part … (human, UniProt O43318 31-303).
T1 construct: range 31-303; In the crystal this domain is not a separate chain; Its C-terminus (Q303) is fused directly, without linker, to TAB1 H468-P504, giving one polypeptide; It was expressed in baculovirus/Hi5 cells and is unphosphorylated; The N-terminal His6 tag was removed by thrombin; also called TAK1 catalytic kinase domain
T1 sequence (looked up): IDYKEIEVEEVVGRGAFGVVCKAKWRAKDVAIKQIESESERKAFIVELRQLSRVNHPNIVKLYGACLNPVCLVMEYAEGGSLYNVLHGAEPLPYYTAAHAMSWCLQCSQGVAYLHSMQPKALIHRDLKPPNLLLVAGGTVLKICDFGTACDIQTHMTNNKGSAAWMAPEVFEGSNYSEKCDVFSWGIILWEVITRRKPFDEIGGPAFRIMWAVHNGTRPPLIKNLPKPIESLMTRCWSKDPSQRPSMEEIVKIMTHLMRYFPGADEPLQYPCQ
The experiment in a line: X-ray crystal structure of the TAK1(I31-Q303)/TAB1(H468-P504) chimera (both parts in one fused chain).

Take `COc1cc(O)c2c(c1)/C=C/C[C@H](O)[C@H](O)C(=O)/C=C\C[C@H](C)OC2=O` [5Z-7-oxozeaenol]: in assay [1], the effect on inflammation entry is given as “relieves inflammation”.

B1: TAB1 segment (residues H468-P504) of human TAK1 binding protein, as part of the TAK1(I31-Q303)/TAB1(H468-P504) chimera (peptide, UniProt Q15750 468-504, looked up)
chain: HSLPPGEDGRVEPYVDFAEFYRLWSVDHGEQSVVTAP
notes: range 468-504; In the crystal this segment is not a separate chain; It is fused directly to the C-terminus of TAK1 I31-Q303; also called Tab1 peptide
For B1, the binding result in assay [2] is “binds”.

(Values after US20110171714A1, “CRYSTAL STRUCTURE OF TAK1-TAB1” (VERTEX PHARMACEUTICALS INCORPORATED, priority 2005, published 2011).)
